The subject of assay [1] is rats. The experiment in a line: ultrasonic vocalization test in rats. The following applies: Rattus norvegicus, in vivo. An excerpt: The affinity to the 5-HT1A receptor can be determined in vitro by radioligand binding experiments according to Cossery J M et al. (Eur. J. Pharmacol. 1987; 140: 143-155). The functional agonistic properties at the 5HT1A receptor can be determined in vitro in the GTP-gamma-S test (Newman-Tancredi A et al., Eur. J. Pharmacol.1996; 307: 107-111). A standard in vivo animal model to test for the 5HT1A agonistic properties is the ultrasonic vocalization test in rats (e.g. deFry J et al., Eur. J. Pharmacol. 1993; 249: 331-339; Sanchez C, Behav. Pharmacol. 1993; 4: 269-277). The affinity for dopamine D4 receptors can be determined in vitro by radioligand binding experiments according to Klokow M et al. (Drug Res. 1986; 36: 197-200).

For assay [2], the system named is Parkinsonian cynomolgus monkey. The experiment in a line: MPTP Parkinsonian cynomolgus monkey, l-dopa-induced adverse effects. The class given is in vivo. The following applies: MPTP monkeys chronically treated with l-dopa. The method, then:
Treatment of adverse effects of conventional anti-Parkinsonian drugs as defined above are determined in a modification of the animal model of the Parkinsonian cynomolgus monkey according to P. J. Blanchet et al., Exp. Neurology 1998; 153: 214-222. Monkeys render parkinsonian by repeated injections of 1-methyl-4-phenyl-1,2,3,6-tetrahydropyridine (MPTP). The Parkinsonian monkeys are chronically treated with the standard 1-dopa therapy according to P. J. Blanchet et al., Mov. Disord., 1998; 13: 798-802. Longterm treatment with l-dopa induces extrapyramidal motor side effects and psychotic states which are both qualitatively and quantitatively, assessed by the Abnormal Involuntary Movement Scale (P. J. Blanchet et al., Mov. Disord. 1998; 13: 798-802) for different body parts (face, neck, trunk, each limb) and by rating for psychotic states by observing the monkey's attention, reactivity and mobility.

Assay [3] relates to Parkinsonian cynomolgus monkey. The experiment in a line: MPTP Parkinsonian cynomolgus monkey, parkinsonian symptoms (Laval University Disability Scale). In kind it is in vivo. From the text:
A typical animal model for idiopathic Parkinson's disease is the Parkinsonian cynomolgus monkey according to P. J. Blanchet et al., Exp. Neurology 1998; 153: 214-222. Monkeys render parkinsonian by repeated injections of 1-methyl-4-phenyl-1,2,3,6-tetrahydropyridine (MPTP). Parkinsonian symptoms are qualitatively assessed by the use of the Laval University Disability Scale (B. Gomez-Mancilla et al., 1993; Mov. Disord. 8: 144-150) measuring the following symptoms: posture, mobility, climbing, gait, holding food, vocalizing, grooming, social interaction.

Assay [4] deals with patients with Huntington's disease. The experiment in a line: trial in patients with Huntington's disease. In kind it is in vivo, human. As to conditions: add on, 2.5 to 20 mg b.i.d. The method, then:
A typical trial to establish the effect of the compounds according to the invention on chorea, voluntary motor performance, and functional disability in patients with Huntington's disease encompasses 32 genetically diagnosed patients. (2R,4R)-2-({[5-(4-fluorophenyl)-pyridin-3ylmethyl]-amino}-methyl)-chroman-4-ol monohydrochloride hemihydrate or placebo is administered as “add on” to the conventional treatment, which is maintained unchanged during the whole study. The dose of blinded medication is titrated over a period of 3 weeks in a range from 2.5 to 20 mg b.i.d. Then the medication is held constant for 1 week. Assessments are performed in the week before and at the last day of the trial. Chorea is scored using the abnormal involuntary movement scale (AIMS, W. Guy, in: ECDEU assessment manual. Rockville Md.: US dept. of health, education and welfare, 1976: 534-537), the unified Huntington's disease rating scale (UHDRS, Huntington study group, 1996, Movement Disord, 11: 13642), and judgement of video recordings. Voluntary motor performance is assessed using the UHDRS motor scale. Patients and their partners complete a questionnaire regarding functional disability.

A further assay deals with mutant dystonic hamster. The experiment in a line: mutant dystonic hamster. In kind it is in vivo. As to conditions: scoring system. From the text:
A typical animal model is the mutant dystonic hamster according to A. Richter and W. Löscher, Prog. Neurobiol. 1998; 54: 633-677. In this genetically dystonic hamsters, dystonic attacks are provoked by taking the animal from the home cage and placing it on a balance. The dystonic syndrome consists of a sequence of abnormal movements, and the severity of the single symptoms is rated by a scoring system.

Assay [5] relates to rats. The experiment in a line: neuroleptics-induced muscle rigidity in rats. In kind it is in vivo, rat. As to conditions: enhanced by haloperidol. From the text:
A typical animal model is neuroleptics-induced muscle rigidity in rats according to S. Wolfarth et al., Arch. Pharmacol. 1992; 345: 209-212. Rats are challenged with the conventional neuroleptic drug haloperidol which enhances muscle tone. Muscle tone is electromechanically measured as the resistence to passive flexion and extension of the hind limb.

In assay [6] the test system is oxotremorine-induced tremor. The experiment in a line: oxotremorine-induced tremor. In kind it is in vivo. As to conditions: rating scale. The method, then:
A typical animal model for drug-induced tremors is the oxotremorine-induced tremor (e.g. H. Hallberg and O. Almgren, Acta Physiol. Scand., 1987; 129: 407-13; J. G. Clement and W. R. Dyck, J. Pharmacol. Meth., 1989; 22: 25-36). Oxotremorine induces tremor which is measured by a rating scale.

The test system of assay [7] is rats. The experiment in a line: posthypoxic myoclonus in rats. The following applies: rat, in vivo. The method, then:
A typical animal model for myoclonus is myoclonus induced by an acute hypoxic episode according to D. D. Truong et al., Mov. Dsiord., 1994; 9: 201-206). In this model of posthypoxic myoclonus, rats undergo a cardiac arrest for 8 minutes and are resuscitated thereafter. Myoclonic jerks occur spontaneously but can be provoked by auditory stimulation, too, worsening over the days following cardiac arrest.

Molecules are shown by their SMILES.

1 compound from patent US7618988B2, “Use of substituted aminomethyl chromans” (Merck Patentgesellschaft, priority 2001, dated 2009) can be followed below.

The ED50 is the dose that gives a 50% effect, or the effect in half of the subjects.

Regarding `O[C@@H]1C[C@H](CNCc2cncc(-c3ccc(F)cc3)c2)Oc2ccccc21` [(2R,4R)-2-({[5-(4-fluorophenyl)-pyridin-3ylmethyl]-amino}-methyl)-chroman-4-ol], the ED50 in the assay on rats [1] is 2 mg/kg. For the same compound, in assay [2], the “choreiform and dystonic dyskinesias (Abnormal Involuntary Movement Scale)” value was “reduce overall choreiform dyskinesias and dystonic dyskinesias”; the psychotic states entry is “reduce”. In assay [3] (Laval University Disability Scale), the parkinsonian symptoms entry is recorded as “reduce all the parkinsonian symptoms”. Further, the total activity result in assay [3] (cynomolgus monkey, in vivo) is “increased total activity”. The “voluntary and involuntary motor performance” value in assay [4] was “significant improvement of voluntary and involuntary motor performance”. Further, in the assay on mutant dystonic hamster, the “severity of dystonic symptoms” value is on record as “dose-dependently reduce the severity of dystonic symptoms”. For the same compound, the muscle tone result in the assay on rats [5] is “decrease the muscle tone enhanced by haloperidol”. Also, the oxotremorine-induced tremors result in assay [6] is given as “inhibit oxotremorine-induced tremors”. In addition, in the assay with rats [7], the “number of spontaneous and auditory-evoked myoclonic jerks” value is “dose-dependently reduce the number of spontaneous and autitory-evoked myoclonic jerks”.
